Assay results published in patent publication US10004701B2, “Methods and compositions for treating infection” (UNIVERSITY OF ROCHESTER, priority 2012, dated 2018).
Where a name gives a salt, the structure may show the parent alone. Read-outs that look alike come from different tables or passages of the source.

Tests used:
Experiment in all cases: AK assay 384-well format, Prestwick library screening
[1] = test system: S. aureus strain USA300-0114; format: cell-based, Staphylococcus aureus; details: 50 μM final drug concentration; for fold induction at 50 µM: Staphylococcus aureus, USA300, 3 h
E. faecium = format: cell-based, Enterococcus faecium; details: 50 μM final drug concentration; for fold induction at 50 µM: Enterococcus faecium, 3 h
E. coli = format: cell-based, Escherichia coli; details: 50 μM final drug concentration; for fold induction at 50 µM: Escherichia coli, 3 h
K. pneumoniae = format: cell-based, Klebsiella pneumoniae; details: 50 μM final drug concentration; for fold induction at 50 µM: Klebsiella pneumoniae, 3 h
[2] = test system: A. baumannii strain 98-37-09; format: cell-based, Acinetobacter baumannii; details: 50 μM final drug concentration; for fold induction at 50 µM: Acinetobacter baumannii, 983709, 3 h
E. cloacae = format: cell-based, Enterobacter cloacae; details: 50 μM final drug concentration; for fold induction at 50 µM: Enterobacter cloacae, 3 h
P. aeruginosa = format: cell-based, Pseudomonas aeruginosa; details: 50 μM final drug concentration; for fold induction at 50 µM: Pseudomonas aeruginosa, 3 h
[3] = 384-well format, cutoff for positive-scoring molecules 3-fold increase, read-out: AK-based Prestwick Library Screening Results, S. aureus (increase in extracellular AK activity)
[4] = 384-well format, cutoff for positive-scoring molecules 3-fold increase, read-out: AK-based Prestwick Library Screening Results, E. faecium (increase in extracellular AK activity)
[5] = 384-well format, cutoff for positive-scoring molecules 3-fold increase, read-out: AK-based Prestwick Library Screening Results, E. coli (increase in extracellular AK activity)
[6] = 384-well format, cutoff for positive-scoring molecules 3-fold increase, read-out: AK-based Prestwick Library Screening Results, K. pneumoniae (increase in extracellular AK activity)
[7] = 384-well format, cutoff for positive-scoring molecules 3-fold increase, read-out: AK-based Prestwick Library Screening Results, A. baumannii (increase in extracellular AK activity)
[8] = 384-well format, cutoff for positive-scoring molecules 3-fold increase, read-out: AK-based Prestwick Library Screening Results, E. cloacae (increase in extracellular AK activity)
[9] = 384-well format, cutoff for positive-scoring molecules 3-fold increase, read-out: AK-based Prestwick Library Screening Results, P. aeruginosa (increase in extracellular AK activity)
[10] = cutoff for positive-scoring molecules 3-fold increase, read-out: AK-based Prestwick Library Screening Results, S. aureus (fold increase in extracellular AK activity)
[11] = cutoff for positive-scoring molecules 3-fold increase, read-out: AK-based Prestwick Library Screening Results, E. faecium (fold increase in extracellular AK activity)
[12] = cutoff for positive-scoring molecules 3-fold increase, read-out: AK-based Prestwick Library Screening Results, E. coli (fold increase in extracellular AK activity)
[13] = cutoff for positive-scoring molecules 3-fold increase, read-out: AK-based Prestwick Library Screening Results, K. pneumoniae (fold increase in extracellular AK activity)
[14] = cutoff for positive-scoring molecules 3-fold increase, read-out: AK-based Prestwick Library Screening Results, A. baumannii (fold increase in extracellular AK activity)
[15] = cutoff for positive-scoring molecules 3-fold increase, read-out: AK-based Prestwick Library Screening Results, E. cloacae (fold increase in extracellular AK activity)
[16] = cutoff for positive-scoring molecules 3-fold increase, read-out: AK-based Prestwick Library Screening Results, P. aeruginosa (fold increase in extracellular AK activity)

`C[C@]12C=CC(=O)C=C1CC[C@@H]1[C@@H]2C(=O)C[C@@]2(C)[C@H]1CC[C@]2(O)C(=O)CO` [Prednisone] was tested, and the fold induction at 50 µM ([1]; planktonic S. aureus, 384-well, cutoff for positive-scoring molecules 3-fold increase, read-out: AK-based Prestwick Library Screening Results: S. aureus (increase in extracellular AK activity)) was 1.1, the fold induction at 50 µM (E. faecium; planktonic E. faecium, 384-well, cutoff for positive-scoring molecules 3-fold increase, read-out: AK-based Prestwick Library Screening Results: E. faecium (increase in extracellular AK activity)) was 0.9 and the fold induction at 50 µM (E. coli; planktonic E. coli, 384-well, cutoff for positive-scoring molecules 3-fold increase, read-out: AK-based Prestwick Library Screening Results: E. coli (increase in extracellular AK activity)) was 1.2. For the same compound, the fold induction at 50 µM (K. pneumoniae; planktonic K. pneumoniae, 384-well, cutoff for positive-scoring molecules 3-fold increase, read-out: AK-based Prestwick Library Screening Results: K. pneumoniae (increase in extracellular AK activity)) was 0.9, the fold induction at 50 µM ([2]; planktonic A. baumannii, 384-well, cutoff for positive-scoring molecules 3-fold increase, read-out: AK-based Prestwick Library Screening Results: A. baumannii (increase in extracellular AK activity)) was 1.2 and the fold induction at 50 µM (E. cloacae; planktonic E. cloacae, 384-well, cutoff for positive-scoring molecules 3-fold increase, read-out: AK-based Prestwick Library Screening Results: E. cloacae (increase in extracellular AK activity)) was 1.4. For the same compound, the fold induction at 50 µM (P. aeruginosa; planktonic P. aeruginosa, 384-well, cutoff for positive-scoring molecules 3-fold increase, read-out: AK-based Prestwick Library Screening Results: P. aeruginosa (increase in extracellular AK activity)) was 0.9.
For `CN1C2CC(=O)CC1C(O)C2` (stereo not drawn) [Compound 6-Hydroxytropinone], the “AK-based Prestwick Library Screening Results, S. aureus (fold increase in extracellular AK activity)” value ([1]; […]) was 0.4, the “AK-based Prestwick Library Screening Results, E. faecium (fold increase in extracellular AK activity)” value (E. faecium; […]) was 0.9 and the “AK-based Prestwick Library Screening Results, E. coli (fold increase in extracellular AK activity)” value (E. coli; […]) was 0.5. For the same compound, the “AK-based Prestwick Library Screening Results, K. pneumoniae (fold increase in extracellular AK activity)” value (K. pneumoniae; […]) was 0.5, the “AK-based Prestwick Library Screening Results, A. baumannii (fold increase in extracellular AK activity)” value ([2]; […]) was 0.5 and the “AK-based Prestwick Library Screening Results, E. cloacae (fold increase in extracellular AK activity)” value (E. cloacae; […]) was 0.4. For the same compound, the “AK-based Prestwick Library Screening Results, P. aeruginosa (fold increase in extracellular AK activity)” value (P. aeruginosa; […]) was 0.4.
`NC(=O)NC1NC(=O)NC1=O` (stereo not drawn) [Allantoin] showed a fold induction at 50 µM [1, 3] of 1.4, a fold induction at 50 µM (E. faecium; [4]) of 0.7 and a fold induction at 50 µM (E. coli; [5]) of 0.4. The fold induction at 50 µM (K. pneumoniae; [6]) was 0.4, the fold induction at 50 µM [2, 7] was 0.4 and the fold induction at 50 µM (E. cloacae; [8]) was 0.3. It also gave a fold induction at 50 µM (P. aeruginosa; [9]) of 0.3.
Work on `CC(=O)[C@H]1CC[C@H]2[C@@H]3C[C@H](C)C4=CC(=O)CC[C@]4(C)[C@H]3[C@@H](O)C[C@]12C` [Medrysone] yielded a fold induction at 50 µM ([1]; planktonic, cutoff for positive-scoring molecules 3-fold increase, read-out: AK-based Prestwick Library Screening Results, S. aureus (fold increase in extracellular AK activity)) of 0.6, a fold induction at 50 µM (E. faecium; planktonic, cutoff for positive-scoring molecules 3-fold increase, read-out: AK-based Prestwick Library Screening Results, E. faecium (fold increase in extracellular AK activity)) of 1 and a fold induction at 50 µM (E. coli; planktonic, cutoff for positive-scoring molecules 3-fold increase, read-out: AK-based Prestwick Library Screening Results, E. coli (fold increase in extracellular AK activity)) of 0.7. It also gave a fold induction at 50 µM (K. pneumoniae; planktonic, cutoff for positive-scoring molecules 3-fold increase, read-out: AK-based Prestwick Library Screening Results, K. pneumoniae (fold increase in extracellular AK activity)) of 0.7, a fold induction at 50 µM ([2]; planktonic, cutoff for positive-scoring molecules 3-fold increase, read-out: AK-based Prestwick Library Screening Results, A. baumannii (fold increase in extracellular AK activity)) of 0.7 and a fold induction at 50 µM (E. cloacae; planktonic, cutoff for positive-scoring molecules 3-fold increase, read-out: AK-based Prestwick Library Screening Results, E. cloacae (fold increase in extracellular AK activity)) of 1. It also gave a fold induction at 50 µM (P. aeruginosa; planktonic, cutoff for positive-scoring molecules 3-fold increase, read-out: AK-based Prestwick Library Screening Results, P. aeruginosa (fold increase in extracellular AK activity)) of 0.8.
With `Clc1ccc(C(OCCN2CCCCC2)c2ccccc2)cc1` (stereo not drawn) [Cloperastine hydrochloride] the fold induction at 50 µM [1, 10] was 1.3, the fold induction at 50 µM (E. faecium; [11]) was 1.1 and the fold induction at 50 µM (E. coli; [12]) was 1.2. The fold induction at 50 µM (K. pneumoniae; [13]) was 1.2, the fold induction at 50 µM [2, 14] was 1.4 and the fold induction at 50 µM (E. cloacae; [15]) was 2. For the same compound, the fold induction at 50 µM (P. aeruginosa; [16]) was 1.2.
`OC(c1cc(C(F)(F)F)nc2c(C(F)(F)F)cccc12)C1CCCCN1` (stereo not drawn) [Mefloquine hydrochloride] was tested, and the fold induction at 50 µM [1, 3] was 3.2, the fold induction at 50 µM (E. faecium; [4]) was 1 and the fold induction at 50 µM (E. coli; [5]) was 1.3. For the same compound, the fold induction at 50 µM (K. pneumoniae; [6]) was 1.3, the fold induction at 50 µM [2, 7] was 2.6 and the fold induction at 50 µM (E. cloacae; [8]) was 1.2. For the same compound, the fold induction at 50 µM (P. aeruginosa; [9]) was 1.1.
For (S)-propranolol hydrochloride, the “AK-based Prestwick library screening result, S. aureus (fold increase in extracellular AK activity)” value ([1]; planktonic S. aureus, positive cutoff 3-fold increase) was 1.0, the “AK-based Prestwick library screening result, E. faecium (fold increase in extracellular AK activity)” value (E. faecium; planktonic E. faecium, positive cutoff 3-fold increase) was 1.1 and the “AK-based Prestwick library screening result, E. coli (fold increase in extracellular AK activity)” value (E. coli; planktonic E. coli, positive cutoff 3-fold increase) was 1.2. For the same compound, the “AK-based Prestwick library screening result, K. pneumoniae (fold increase in extracellular AK activity)” value (K. pneumoniae; planktonic K. pneumoniae, positive cutoff 3-fold increase) was 1.0, the “AK-based Prestwick library screening result, A. baumannii (fold increase in extracellular AK activity)” value ([2]; planktonic A. baumannii, positive cutoff 3-fold increase) was 1.0 and the “AK-based Prestwick library screening result, E. cloacae (fold increase in extracellular AK activity)” value (E. cloacae; planktonic E. cloacae, positive cutoff 3-fold increase) was 1.6. The “AK-based Prestwick library screening result, P. aeruginosa (fold increase in extracellular AK activity)” value (P. aeruginosa; planktonic P. aeruginosa, positive cutoff 3-fold increase) was 1.1.
Work on `CCOC1O[C@H]([C@@H](COCc2ccccc2)OCc2ccccc2)[C@H](OCc2ccccc2)[C@H]1O` (stereo partly drawn) [Tribenoside] yielded a fold induction at 50 µM ([1]; planktonic S. aureus, positive cutoff 3-fold increase, read-out: AK-based Prestwick library screening result, S. aureus (fold increase in extracellular AK activity)) of 0.6, a fold induction at 50 µM (E. faecium; planktonic E. faecium, positive cutoff 3-fold increase, read-out: AK-based Prestwick library screening result, E. faecium (fold increase in extracellular AK activity)) of 1.1 and a fold induction at 50 µM (E. coli; planktonic E. coli, positive cutoff 3-fold increase, read-out: AK-based Prestwick library screening result, E. coli (fold increase in extracellular AK activity)) of 0.9. It also gave a fold induction at 50 µM (K. pneumoniae; planktonic K. pneumoniae, positive cutoff 3-fold increase, read-out: AK-based Prestwick library screening result, K. pneumoniae (fold increase in extracellular AK activity)) of 0.9, a fold induction at 50 µM ([2]; planktonic A. baumannii, positive cutoff 3-fold increase, read-out: AK-based Prestwick library screening result, A. baumannii (fold increase in extracellular AK activity)) of 1.7 and a fold induction at 50 µM (E. cloacae; planktonic E. cloacae, positive cutoff 3-fold increase, read-out: AK-based Prestwick library screening result, E. cloacae (fold increase in extracellular AK activity)) of 1.5. It also gave a fold induction at 50 µM (P. aeruginosa; planktonic P. aeruginosa, positive cutoff 3-fold increase, read-out: AK-based Prestwick library screening result, P. aeruginosa (fold increase in extracellular AK activity)) of 1.1.
`NC(CO)C(=O)NNCc1ccc(O)c(O)c1O` (stereo not drawn) [Benserazide hydrochloride] was tested, and the fold induction at 50 µM [1, 10] was 1.4, the fold induction at 50 µM (E. faecium; [11]) was 0.9 and the fold induction at 50 µM (E. coli; [12]) was 1.3. The fold induction at 50 µM (K. pneumoniae; [13]) was 1.2, the fold induction at 50 µM [2, 14] was 1 and the fold induction at 50 µM (E. cloacae; [15]) was 1.8. It also gave a fold induction at 50 µM (P. aeruginosa; [16]) of 1.1.
`CCOC(=O)[C@H](CCc1ccccc1)N[C@@H](C)C(=O)N1Cc2ccccc2C[C@H]1C(=O)O` [Quinapril HCl] was tested, and the fold induction at 50 µM [1, 10] was 1.2, the fold induction at 50 µM (E. faecium; [11]) was 1.1 and the fold induction at 50 µM (E. coli; [12]) was 1.2. For the same compound, the fold induction at 50 µM (K. pneumoniae; [13]) was 1, the fold induction at 50 µM [2, 14] was 1.2 and the fold induction at 50 µM (E. cloacae; [15]) was 1.6. It also gave a fold induction at 50 µM (P. aeruginosa; [16]) of 1.2.
Compound `O=C(CCCCC(=O)Nc1c(I)cc(I)c(C(=O)O)c1I)Nc1c(I)cc(I)c(C(=O)O)c1I` [Iodipamide] has a fold induction at 50 µM [1, 10] of 1, a fold induction at 50 µM (E. faecium; [11]) of 1 and a fold induction at 50 µM (E. coli; [12]) of 1.2. For the same compound, the fold induction at 50 µM (K. pneumoniae; [13]) was 1, the fold induction at 50 µM [2, 14] was 1.2 and the fold induction at 50 µM (E. cloacae; [15]) was 1.6. The fold induction at 50 µM (P. aeruginosa; [16]) was 1.1.
In the case of `NS(=O)(=O)c1cc2c(cc1Cl)NCNS2(=O)=O` [Hydrochlorothiazide], the fold induction at 50 µM [1, 3] is reported as 0.5, the fold induction at 50 µM (E. faecium; [4]) is reported as 1.1 and the fold induction at 50 µM (E. coli; [5]) is reported as 0.5. It also gave a fold induction at 50 µM (K. pneumoniae; [6]) of 0.6, a fold induction at 50 µM [2, 7] of 0.5 and a fold induction at 50 µM (E. cloacae; [8]) of 0.4. It also gave a fold induction at 50 µM (P. aeruginosa; [9]) of 0.5.
